# Measured values from patent publication US6358885B1, “Substituted phenylheterocyclic herbicides” (Mississippi State University, priority 1992, dated 2002).
# Legend:
# chickweed = assay: Test C preemergence/postemergence greenhouse plant response rating 0 to 100; assay type: in vivo, Stellaria media; conditions: PREEMERGENCE
# Procedure, shortened: (§1)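 Compounds in non-phytotoxic solvent applied preemergence to sandy loam one day after planting, postemergence at the 1–4 leaf stage, or to ~2.5 cm floodwater over silt loam.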
# blackgrass = assay: Test B preemergence/postemergence greenhouse plant response rating 0 to 10; assay type: in vivo, Alopecurus myosuroides; conditions: 0 to 10 scale
# Procedure, shortened: (§2)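 Both application timings were run together: seeds got compound preemergence, and established seedlings (two to eighteen cm) got it postemergence. Non-phytotoxic solvent carried the chemical. Ratings are visual, versus controls, at twelve to sixteen days.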
# crabgrass = assay: as above; assay type: in vivo, Digitaria spp.; conditions: 0 to 10 scale
# Procedure, shortened: as §2
# lambsquarters [1] = assay: as above; assay type: in vivo, Chenopodium album; conditions: 0 to 10 scale
# Procedure, shortened: as §2
# ryegrass = assay: Test C preemergence/postemergence greenhouse plant response rating 0 to 100; assay type: in vivo, Lolium multiflorum; conditions: for Plant response rating Ryegrass: 125 g/ha, 0 to 100 scale
# Procedure, shortened: as §1
# purple nutsedge = assay: Test B preemergence/postemergence greenhouse plant response rating 0 to 10; assay type: in vivo, Cyperus rotundus; conditions: 0 to 10 scale
# Procedure, shortened: as §2
# soybean [2] = assay: Test C preemergence/postemergence greenhouse plant response rating 0 to 100; assay type: in vivo, Glycine max; conditions: for Plant response rating, Soybean: 125 g/ha, 0 to 100 scale
# Procedure, shortened: as §1
# wild buckwheat = assay: as above; assay type: in vivo, Polygonum convolvulus; conditions: for Plant response rating, Wild buckwheat: 125 g/ha, 0 to 100 scale
# Procedure, shortened: as §1
# lambsquarters [3] = assay: as above; assay type: in vivo, Chenopodium album; conditions: PREEMERGENCE
# Procedure, shortened: as §1
# rape = assay: Test B preemergence/postemergence greenhouse plant response rating 0 to 10; assay type: in vivo, Brassica napus; conditions: 0 to 10 scale
# Procedure, shortened: as §2
# barley [4] = assay: as above; assay type: in vivo, Hordeum vulgare; conditions: 0 to 10 scale
# Procedure, shortened: as §2
# sugar beet = assay: Test C preemergence/postemergence greenhouse plant response rating 0 to 100; assay type: in vivo, Beta vulgaris; conditions: for Plant response rating, Sugar beet: 125 g/ha, 0 to 100 scale
# Procedure, shortened: as §1
# pigweed = assay: as above; assay type: in vivo, Amaranthusretroflexus; conditions: for Plant response rating Pigweed: 125 g/ha, 0 to 100 scale
# Procedure, shortened: as §1
# velvetleaf = assay: Test B preemergence/postemergence greenhouse plant response rating 0 to 10; assay type: in vivo, Abutilon theophrasti; conditions: 0 to 10 scale
# Procedure, shortened: as §2
# barley [5] = assay: Test C preemergence/postemergence greenhouse plant response rating 0 to 100; assay type: in vivo, Hordeum vulgare; conditions: for Plant response rating Barley Igri: 125 g/ha, 0 to 100 scale
# Procedure, shortened: as §1
# cheatgrass = assay: Test B preemergence/postemergence greenhouse plant response rating 0 to 10; assay type: in vivo, Bromus secalinus; conditions: 0 to 10 scale
# Procedure, shortened: as §2
# giant foxtail = assay: as above; assay type: in vivo, Setaria faberii; conditions: 0 to 10 scale
# Procedure, shortened: as §2
# soybean [6] = assay: as above; assay type: in vivo, Glycine max; conditions: 0 to 10 scale
# Procedure, shortened: as §2
smiles,measurement,setting,value
Fc1cc(Cl)ccc1-c1nn2c(c1Br)CCCC2 [Compound 52],"Plant response rating, Chickweed","chickweed; 125 g/ha, 0 to 100 scale",20
same,"Plant response rating (0 to 100), Chickweed",chickweed; Rate 2 g/ha,0
same,"Plant response rating (0 to 100), Chickweed",chickweed; Rate 8 g/ha,0
same,"Plant response rating (0 to 100), Chickweed",chickweed; Rate 31 g/ha,0
same,"Plant response rating, Blackgrass","blackgrass; POSTEMERGENCE, Rate 50 g/ha",4
same,"Plant response rating, Blackgrass","blackgrass; POSTEMERGENCE, Rate 200 g/ha",5
same,"Plant response rating, Blackgrass","blackgrass; PREEMERGENCE, Rate 50 g/ha",4
same,"Plant response rating, Blackgrass","blackgrass; Rate 200 g/ha, PREEMERGENCE",6
same,"Plant response rating, Crabgrass","crabgrass; POSTEMERGENCE, Rate 50 g/ha",6
same,"Plant response rating, Crabgrass","crabgrass; POSTEMERGENCE, Rate 200 g/ha",7
same,"Plant response rating, Crabgrass","crabgrass; PREEMERGENCE, Rate 50 g/ha",2
same,"Plant response rating, Crabgrass","crabgrass; Rate 200 g/ha, PREEMERGENCE",10
same,"Plant response rating, Lambsquarter","lambsquarters [1]; POSTEMERGENCE, Rate 50 g/ha",9
same,"Plant response rating, Lambsquarter","lambsquarters [1]; PREEMERGENCE, Rate 50 g/ha",10
same,"Plant response rating, Lambsquarter","lambsquarters [1]; Rate 200 g/ha, POSTEMERGENCE",10
same,"Plant response rating, Lambsquarter","lambsquarters [1]; Rate 200 g/ha, PREEMERGENCE",10
same,Plant response rating Ryegrass,ryegrass; POSTEMERGENCE,60
same,"Plant response rating (0 to 100), Ryegrass","ryegrass; POSTEMERGENCE, Rate 2 g/ha",10
same,Plant response rating Ryegrass,ryegrass; PREEMERGENCE,50
same,"Plant response rating (0 to 100), Ryegrass","ryegrass; PREEMERGENCE, Rate 2 g/ha",0
same,"Plant response rating (0 to 100), Ryegrass","ryegrass; Rate 8 g/ha, POSTEMERGENCE",20
same,"Plant response rating (0 to 100), Ryegrass","ryegrass; Rate 8 g/ha, PREEMERGENCE",0
same,"Plant response rating (0 to 100), Ryegrass","ryegrass; Rate 31 g/ha, POSTEMERGENCE",40
same,"Plant response rating (0 to 100), Ryegrass","ryegrass; Rate 31 g/ha, PREEMERGENCE",10
same,"Plant response rating, Nutsedge","purple nutsedge; POSTEMERGENCE, Rate 50 g/ha",3
same,"Plant response rating, Nutsedge","purple nutsedge; PREEMERGENCE, Rate 50 g/ha",0
same,"Plant response rating, Nutsedge","purple nutsedge; Rate 200 g/ha, POSTEMERGENCE",5
same,"Plant response rating, Nutsedge","purple nutsedge; Rate 200 g/ha, PREEMERGENCE",0
same,"Plant response rating, Soybean",soybean [2]; POSTEMERGENCE,70
same,"Plant response rating (0 to 100), Soybean","soybean [2]; POSTEMERGENCE, Rate 2 g/ha",10
same,"Plant response rating, Soybean",soybean [2]; PREEMERGENCE,0
same,"Plant response rating (0 to 100), Soybean","soybean [2]; PREEMERGENCE, Rate 2 g/ha",0
same,"Plant response rating (0 to 100), Soybean","soybean [2]; Rate 8 g/ha, POSTEMERGENCE",30
same,"Plant response rating (0 to 100), Soybean","soybean [2]; Rate 8 g/ha, PREEMERGENCE",0
same,"Plant response rating (0 to 100), Soybean","soybean [2]; Rate 31 g/ha, POSTEMERGENCE",40
same,"Plant response rating (0 to 100), Soybean","soybean [2]; Rate 31 g/ha, PREEMERGENCE",0
same,"Plant response rating, Wild buckwheat",wild buckwheat; POSTEMERGENCE,100
same,"Plant response rating, Wild buckwheat",wild buckwheat; PREEMERGENCE,100
same,"Plant response rating (0 to 100), Wild buckwheat","wild buckwheat; PREEMERGENCE, Rate 2 g/ha",0
same,"Plant response rating (0 to 100), Wild buckwheat","wild buckwheat; Rate 8 g/ha, POSTEMERGENCE",40
same,"Plant response rating (0 to 100), Wild buckwheat","wild buckwheat; Rate 8 g/ha, PREEMERGENCE",0
same,"Plant response rating (0 to 100), Wild buckwheat","wild buckwheat; Rate 31 g/ha, POSTEMERGENCE",80
same,"Plant response rating (0 to 100), Wild buckwheat","wild buckwheat; Rate 31 g/ha, PREEMERGENCE",10
same,Plant response rating Lambsquarters,"lambsquarters [3]; 125 g/ha, 0 to 100 scale",100
same,"Plant response rating (0 to 100), Lambsquarters",lambsquarters [3]; Rate 2 g/ha,0
same,"Plant response rating (0 to 100), Lambsquarters",lambsquarters [3]; Rate 8 g/ha,0
same,"Plant response rating (0 to 100), Lambsquarters",lambsquarters [3]; Rate 31 g/ha,50
same,"Plant response rating, Rape","rape; POSTEMERGENCE, Rate 50 g/ha",8
same,"Plant response rating, Rape","rape; PREEMERGENCE, Rate 50 g/ha",1
same,"Plant response rating, Rape","rape; Rate 200 g/ha, POSTEMERGENCE",10
same,"Plant response rating, Rape","rape; Rate 200 g/ha, PREEMERGENCE",9
same,"Plant response rating, Barley","barley [4]; POSTEMERGENCE, Rate 50 g/ha",5
same,"Plant response rating, Barley","barley [4]; POSTEMERGENCE, Rate 200 g/ha",7
same,"Plant response rating, Barley","barley [4]; PREEMERGENCE, Rate 50 g/ha",2
same,"Plant response rating, Barley","barley [4]; Rate 200 g/ha, PREEMERGENCE",3
same,"Plant response rating, Sugar beet",sugar beet; POSTEMERGENCE,100
same,"Plant response rating (0 to 100), Sugar beet","sugar beet; POSTEMERGENCE, Rate 2 g/ha",70
same,"Plant response rating, Sugar beet",sugar beet; PREEMERGENCE,100
same,"Plant response rating (0 to 100), Sugar beet","sugar beet; PREEMERGENCE, Rate 2 g/ha",0
same,"Plant response rating (0 to 100), Sugar beet","sugar beet; Rate 8 g/ha, POSTEMERGENCE",70
same,"Plant response rating (0 to 100), Sugar beet","sugar beet; Rate 8 g/ha, PREEMERGENCE",0
same,"Plant response rating (0 to 100), Sugar beet","sugar beet; Rate 31 g/ha, POSTEMERGENCE",100
same,"Plant response rating (0 to 100), Sugar beet","sugar beet; Rate 31 g/ha, PREEMERGENCE",70
same,Plant response rating Pigweed,pigweed; POSTEMERGENCE,100
same,"Plant response rating (0 to 100), Pigweed","pigweed; POSTEMERGENCE, Rate 2 g/ha",20
same,Plant response rating Pigweed,pigweed; PREEMERGENCE,100
same,"Plant response rating (0 to 100), Pigweed","pigweed; PREEMERGENCE, Rate 2 g/ha",0
same,"Plant response rating (0 to 100), Pigweed","pigweed; Rate 8 g/ha, POSTEMERGENCE",50
same,"Plant response rating (0 to 100), Pigweed","pigweed; Rate 8 g/ha, PREEMERGENCE",50
same,"Plant response rating (0 to 100), Pigweed","pigweed; Rate 31 g/ha, POSTEMERGENCE",50
same,"Plant response rating (0 to 100), Pigweed","pigweed; Rate 31 g/ha, PREEMERGENCE",100
same,"Plant response rating, Velvetleaf","velvetleaf; POSTEMERGENCE, Rate 50 g/ha",9
same,"Plant response rating, Velvetleaf","velvetleaf; PREEMERGENCE, Rate 50 g/ha",8
same,"Plant response rating, Velvetleaf","velvetleaf; Rate 200 g/ha, POSTEMERGENCE",10
same,"Plant response rating, Velvetleaf","velvetleaf; Rate 200 g/ha, PREEMERGENCE",10
same,Plant response rating Barley Igri,barley [5]; POSTEMERGENCE,50
same,"Plant response rating (0 to 100), Barley Igri","barley [5]; POSTEMERGENCE, Rate 2 g/ha",10
same,Plant response rating Barley Igri,barley [5]; PREEMERGENCE,10
same,"Plant response rating (0 to 100), Barley Igri","barley [5]; PREEMERGENCE, Rate 2 g/ha",0
same,"Plant response rating (0 to 100), Barley Igri","barley [5]; Rate 8 g/ha, POSTEMERGENCE",20
same,"Plant response rating (0 to 100), Barley Igri","barley [5]; Rate 8 g/ha, PREEMERGENCE",0
same,"Plant response rating (0 to 100), Barley Igri","barley [5]; Rate 31 g/ha, POSTEMERGENCE",40
same,"Plant response rating (0 to 100), Barley Igri","barley [5]; Rate 31 g/ha, PREEMERGENCE",0
same,"Plant response rating, Cheatgrass","cheatgrass; POSTEMERGENCE, Rate 50 g/ha",4
same,"Plant response rating, Cheatgrass","cheatgrass; POSTEMERGENCE, Rate 200 g/ha",7
same,"Plant response rating, Cheatgrass","cheatgrass; PREEMERGENCE, Rate 50 g/ha",6
same,"Plant response rating, Cheatgrass","cheatgrass; Rate 200 g/ha, PREEMERGENCE",10
same,"Plant response rating, Giant foxtail","giant foxtail; POSTEMERGENCE, Rate 50 g/ha",5
same,"Plant response rating, Giant foxtail","giant foxtail; PREEMERGENCE, Rate 50 g/ha",9
same,"Plant response rating, Giant foxtail","giant foxtail; Rate 200 g/ha, POSTEMERGENCE",7
same,"Plant response rating, Giant foxtail","giant foxtail; Rate 200 g/ha, PREEMERGENCE",10
same,"Plant response rating, Soybean","soybean [6]; POSTEMERGENCE, Rate 50 g/ha",10
same,"Plant response rating, Soybean","soybean [6]; PREEMERGENCE, Rate 50 g/ha",0
same,"Plant response rating, Soybean","soybean [6]; Rate 200 g/ha, POSTEMERGENCE",8
same,"Plant response rating, Soybean","soybean [6]; Rate 200 g/ha, PREEMERGENCE",0
